Key:
EGFR mutant L858R/T790M = target: T1, EGFR mutant L858R/T790M (Homo sapiens, UniProt P00533, L858R/T790M); test: Kinase inhibition assay, EGFR L858R/T790M; format: biochemical; conditions: read-out: EGFR mutants L858R/T790M;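 also: truncated human enzyme preincubated two hours with compound, then one hour with one millimolar ATP and ULight-PolyGT peptide, Europium-labeled antibody detection, IC50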
T1 construct: truncated human JAK3, EGFR mutants such as del E746-A750; purchased Carna Biosciences

SYK = target: T2, SYK (Homo sapiens, UniProt P43405); test: Kinase inhibition assay, SYK; format: biochemical; conditions: biochemical potency;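 also: purified full-length human SYK pre-incubated 30 min with compound, then ULight-TK peptide phosphorylation for 1 h, detected with Europium-labeled antibody in Lance buffer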
T2 construct: Purified human, full-length SYK, KDR; purchased Carna Biosciences

[1] = target: T3, EGFR mutant Del19 (E746-A750) (Homo sapiens, UniProt P00533, DEL746-750); test: Kinase inhibition assay, EGFR del E746-A750; format: biochemical; conditions: read-out: EGFR mutants Del19 (E746-A750);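 also: truncated human EGFR mutant kinase, two-hour preincubation with compound, then one-hour reaction with ATP and ULight-PolyGT peptide, LANCE Europium-antibody phosphorylation readout, IC50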
T3 construct: truncated human JAK3, EGFR mutants such as del E746-A750; purchased Carna Biosciences

EGFR mutant Del19/T790M = target: T4, EGFR mutant Del19/T790M (Homo sapiens, UniProt P00533, DEL746-750/T790M); test: Kinase inhibition assay, EGFR del E746-A750/T790M; format: biochemical; conditions: read-out: EGFR mutants Del19/T790M
T4 construct: truncated human JAK3, EGFR mutants such as del E746-A750; purchased Carna Biosciences

EGFR mutant L858R = target: T5, EGFR mutant L858R (Homo sapiens, UniProt P00533, L858R); test: Kinase inhibition assay, EGFR L858R; format: biochemical; conditions: read-out: EGFR mutants L858R;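 also: truncated human EGFR L858R kinase with compound preincubation, ULight-PolyGT peptide phosphorylation read by Europium-antibody Lance detection, IC50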
T5 construct: truncated human JAK3, EGFR mutants such as del E746-A750; purchased Carna Biosciences

EGFR mutant T790M = target: T6, EGFR mutant T790M (Homo sapiens, UniProt P00533, T790M); test: Kinase inhibition assay, EGFR mutant T790M; conditions: biochemical potency;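 also: truncated human EGFR mutant enzyme preincubated two hours with compound, then ATP plus ULight-PolyGT peptide for one hour, Europium-labeled antibody LANCE detection, IC50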
T6 construct: truncated human JAK3, EGFR mutants such as del E746-A750; purchased Carna Biosciences
T6 sequence (P00533 669-1210 T790M limits assumed): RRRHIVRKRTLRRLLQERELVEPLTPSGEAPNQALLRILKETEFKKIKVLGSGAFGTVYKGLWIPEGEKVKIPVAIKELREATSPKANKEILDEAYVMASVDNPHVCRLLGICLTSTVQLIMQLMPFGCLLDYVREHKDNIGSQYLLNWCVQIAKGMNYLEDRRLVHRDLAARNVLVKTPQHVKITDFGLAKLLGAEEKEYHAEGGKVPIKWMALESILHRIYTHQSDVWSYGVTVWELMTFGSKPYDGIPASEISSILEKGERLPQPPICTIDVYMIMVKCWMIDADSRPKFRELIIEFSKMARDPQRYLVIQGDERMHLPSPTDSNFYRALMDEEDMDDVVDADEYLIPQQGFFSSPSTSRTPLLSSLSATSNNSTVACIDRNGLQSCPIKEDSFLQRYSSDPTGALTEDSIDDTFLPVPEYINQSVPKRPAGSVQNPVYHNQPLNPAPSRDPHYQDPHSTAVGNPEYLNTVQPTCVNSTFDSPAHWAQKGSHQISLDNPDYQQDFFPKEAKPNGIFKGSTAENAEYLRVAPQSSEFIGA

T5 sequence (P00533 669-1210 L858R limits assumed): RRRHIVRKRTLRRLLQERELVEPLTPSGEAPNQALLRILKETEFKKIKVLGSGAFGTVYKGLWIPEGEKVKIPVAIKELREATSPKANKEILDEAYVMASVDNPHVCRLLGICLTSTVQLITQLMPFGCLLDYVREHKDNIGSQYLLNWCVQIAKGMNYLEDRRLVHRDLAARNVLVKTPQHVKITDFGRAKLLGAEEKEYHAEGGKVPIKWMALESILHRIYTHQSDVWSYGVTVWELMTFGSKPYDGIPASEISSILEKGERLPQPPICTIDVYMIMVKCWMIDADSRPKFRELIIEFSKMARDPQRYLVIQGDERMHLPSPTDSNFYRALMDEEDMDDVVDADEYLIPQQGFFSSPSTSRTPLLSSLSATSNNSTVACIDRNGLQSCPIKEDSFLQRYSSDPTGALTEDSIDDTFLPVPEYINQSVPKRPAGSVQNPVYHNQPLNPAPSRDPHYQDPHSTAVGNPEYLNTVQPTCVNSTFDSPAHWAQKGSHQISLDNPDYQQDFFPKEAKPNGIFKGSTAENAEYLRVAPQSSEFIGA
T3 sequence (P00533 with tags, fused parts or gaps DEL746-750 limits assumed): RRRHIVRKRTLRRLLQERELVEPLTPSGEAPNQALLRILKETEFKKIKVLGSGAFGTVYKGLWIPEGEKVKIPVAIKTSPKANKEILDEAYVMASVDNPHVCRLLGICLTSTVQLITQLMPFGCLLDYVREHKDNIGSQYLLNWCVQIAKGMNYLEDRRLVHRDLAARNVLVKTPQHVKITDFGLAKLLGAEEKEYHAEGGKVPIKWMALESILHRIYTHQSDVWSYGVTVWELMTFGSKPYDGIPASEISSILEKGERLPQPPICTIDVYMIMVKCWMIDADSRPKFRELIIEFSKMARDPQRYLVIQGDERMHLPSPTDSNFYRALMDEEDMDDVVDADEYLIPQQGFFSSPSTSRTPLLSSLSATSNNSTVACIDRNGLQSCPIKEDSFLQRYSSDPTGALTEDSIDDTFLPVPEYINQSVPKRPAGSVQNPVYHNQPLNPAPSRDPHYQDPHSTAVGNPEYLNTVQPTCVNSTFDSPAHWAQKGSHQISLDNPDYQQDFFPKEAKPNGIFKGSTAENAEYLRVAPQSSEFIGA
T1 sequence (P00533 669-1210 T790M/L858R limits assumed): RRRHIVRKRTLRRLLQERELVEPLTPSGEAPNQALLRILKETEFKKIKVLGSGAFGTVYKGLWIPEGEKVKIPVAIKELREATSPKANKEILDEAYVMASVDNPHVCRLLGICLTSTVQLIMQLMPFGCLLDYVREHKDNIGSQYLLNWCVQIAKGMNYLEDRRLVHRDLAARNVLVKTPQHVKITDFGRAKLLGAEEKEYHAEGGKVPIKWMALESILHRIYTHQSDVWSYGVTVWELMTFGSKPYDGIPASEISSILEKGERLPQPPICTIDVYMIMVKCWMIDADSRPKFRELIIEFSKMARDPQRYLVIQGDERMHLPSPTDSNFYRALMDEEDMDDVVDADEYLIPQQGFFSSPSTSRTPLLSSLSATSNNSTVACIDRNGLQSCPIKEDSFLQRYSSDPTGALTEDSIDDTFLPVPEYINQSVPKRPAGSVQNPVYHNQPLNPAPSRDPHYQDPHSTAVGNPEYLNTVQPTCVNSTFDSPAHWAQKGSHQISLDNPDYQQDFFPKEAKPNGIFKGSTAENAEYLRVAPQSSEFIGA
T4 sequence (P00533 with tags, fused parts or gaps DEL746-750/T790M limits assumed): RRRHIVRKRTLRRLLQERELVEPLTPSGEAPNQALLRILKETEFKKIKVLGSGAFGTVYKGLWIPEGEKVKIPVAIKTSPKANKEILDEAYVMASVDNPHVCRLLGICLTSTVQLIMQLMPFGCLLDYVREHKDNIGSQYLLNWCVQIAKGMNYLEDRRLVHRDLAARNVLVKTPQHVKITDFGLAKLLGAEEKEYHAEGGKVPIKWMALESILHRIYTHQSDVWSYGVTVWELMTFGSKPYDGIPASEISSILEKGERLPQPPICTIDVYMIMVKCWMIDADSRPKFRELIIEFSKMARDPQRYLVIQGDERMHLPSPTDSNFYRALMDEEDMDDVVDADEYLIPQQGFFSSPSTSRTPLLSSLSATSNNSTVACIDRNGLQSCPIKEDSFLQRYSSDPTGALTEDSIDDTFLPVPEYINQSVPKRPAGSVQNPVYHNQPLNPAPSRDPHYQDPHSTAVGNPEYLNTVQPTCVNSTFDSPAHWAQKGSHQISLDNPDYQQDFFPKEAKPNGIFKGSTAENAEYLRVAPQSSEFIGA

C=CC(=O)Nc1cc(Nc2nccc(-n3cc(CN4C[C@H](O)[C@H](OC)C4)c(C)n3)n2)c(OC)cc1N1CCOCC1 [Compound 45, N-(5-(4-(4-(((3S,4R)-3-hydroxy-4-methoxypyrrolidin-1-yl)methyl)-3-methyl-1H-pyrazol-1-yl)pyrimidin-2-ylamino)-4-methoxy-2-morpholinophenyl)acrylamide]
IC50 (EGFR mutant L858R/T790M): < 20 nM
IC50 (SYK): > 1000 nM
IC50 [1]: < 20 nM
IC50 (EGFR mutant Del19/T790M): < 20 nM
IC50 (EGFR mutant L858R): 20 to 200 nM
IC50 (EGFR mutant T790M): 20 to 200 nM

C=CC(=O)Nc1cc(Nc2nccc(-n3cc(CN4CCC4)c(C(C)C)n3)n2)c(OC)cc1N(C)C1COC1 [Compound 115]
IC50 (EGFR mutant L858R/T790M): < 20 nM
IC50 (SYK): > 1000 nM
IC50 [1]: < 20 nM
IC50 (EGFR mutant Del19/T790M): < 20 nM
IC50 (EGFR mutant L858R): < 20 nM
IC50 (EGFR mutant T790M): < 20 nM

C=CC(=O)Nc1cc(Nc2nccc(-n3cc(CN4CC(OC)C4)c(C)n3)n2)c(OC)cc1N1CCOCC1 [Compound 44, N-(4-methoxy-5-(4-(4-((3-methoxyazetidin-1-yl)methyl)-3-methyl-1H-pyrazol-1-yl)pyrimidin-2-ylamino)-2-morpholinophenyl)acrylamide]
IC50 (EGFR mutant L858R/T790M): 20 to 200 nM
IC50 (SYK): > 1000 nM
IC50 [1]: 20 to 200 nM
IC50 (EGFR mutant Del19/T790M): 20 to 200 nM
IC50 (EGFR mutant L858R): 20 to 200 nM
IC50 (EGFR mutant T790M): 201 to 1000 nM

C=CC(=O)Nc1cc(Nc2nccc(-n3cc(CN(C)C)c(-c4ccccc4)n3)n2)c(OC)cc1N(C)C1COC1 [Compound 96, N-(5-(4-(4-((dimethylamino)methyl)-3-phenyl-1H-pyrazol-1-yl)pyrimidin-2-ylamino)-4-methoxy-2-(methyl(oxetan-3-yl)amino)phenyl)acrylamide]
IC50 (EGFR mutant L858R/T790M): < 20 nM
IC50 (SYK): > 1000 nM
IC50 [1]: < 20 nM
IC50 (EGFR mutant Del19/T790M): < 20 nM
IC50 (EGFR mutant L858R): < 20 nM
IC50 (EGFR mutant T790M): 20 to 200 nM

C=CC(=O)Nc1cc(Nc2nccc(-n3cc(CN(C)C)c(-c4ccccc4)n3)n2)c(OC)cc1N(C)C [Compound 83, N-(2-(dimethylamino)-5-(4-(4-((dimethylamino)methyl)-3-phenyl-1H-pyrazol-1-yl)pyrimidin-2-ylamino)-4-methoxyphenyl)acrylamide]
IC50 (EGFR mutant L858R/T790M): < 20 nM
IC50 (SYK): > 1000 nM
IC50 [1]: < 20 nM
IC50 (EGFR mutant Del19/T790M): < 20 nM
IC50 (EGFR mutant L858R): < 20 nM
IC50 (EGFR mutant T790M): < 20 nM

C=CC(=O)Nc1cc(Nc2ncc(C)c(-n3cc(CN(C)C)c(C(C)(C)C)n3)n2)c(OC)cc1N1CCOCC1 [Compound 7, N-(5-(4-(3-tert-butyl-4-((dimethylamino)methyl)-1H-pyrazol-1-yl)-5-methylpyrimidin-2-ylamino)-4-methoxy-2-morpholinophenyl)acrylamide]
IC50 (EGFR mutant L858R/T790M): < 20 nM
IC50 (SYK): > 1000 nM
IC50 [1]: < 20 nM
IC50 (EGFR mutant Del19/T790M): < 20 nM
IC50 (EGFR mutant L858R): < 20 nM
IC50 (EGFR mutant T790M): < 20 nM

COc1cc(N2CCOCC2)c(N)cc1Nc1nccc(-n2cc(CN(C)C)c(-c3ccccc3)n2)n1 [Compound 153, N1-(4-(4-((dimethylamino)methyl)-3-phenyl-1H-pyrazol-1-yl)pyrimidin-2-yl)-6-methoxy-4-morpholinobenzene-1,3-diamine, reference compound]
IC50 (EGFR mutant L858R/T790M): > 1000 nM
IC50 (SYK): > 1000 nM
IC50 [1]: > 1000 nM
IC50 (EGFR mutant Del19/T790M): > 1000 nM
IC50 (EGFR mutant L858R): > 1000 nM
IC50 (EGFR mutant T790M): > 1000 nM

C=CC(=O)Nc1cc(Nc2ncc(F)c(-n3cc(CN4CCC4)c(-c4ccoc4)c3)n2)c(OC)cc1N1CCOCC1 [Compound 130, N-(5-(4-(3-(azetidin-1-ylmethyl)-4-(furan-3-yl)-1H-pyrrol-1-yl)-5-fluoropyrimidin-2-ylamino)-4-methoxy-2-morpholinophenyl)acrylamide]
IC50 (EGFR mutant L858R/T790M): < 20 nM
IC50 (SYK): 201 to 1000 nM
IC50 [1]: < 20 nM
IC50 (EGFR mutant Del19/T790M): < 20 nM
IC50 (EGFR mutant L858R): < 20 nM
IC50 (EGFR mutant T790M): < 20 nM

C=CC(=O)Nc1cc(Nc2nccc(-n3cc(CN4CCC4)c(C4CC4)n3)n2)c(OC)cc1N(C)CCOC [Compound 107, N-(5-(4-(4-(azetidin-1-ylmethyl)-3-cyclopropyl-1H-pyrazol-1-yl)pyrimidin-2-ylamino)-4-methoxy-2-((2-methoxyethyl)(methyl)amino)phenyl)acrylamide]
IC50 (EGFR mutant L858R/T790M): < 20 nM
IC50 (SYK): 20 to 200 nM
IC50 [1]: < 20 nM
IC50 (EGFR mutant Del19/T790M): < 20 nM
IC50 (EGFR mutant L858R): < 20 nM
IC50 (EGFR mutant T790M): < 20 nM

C=CC(=O)Nc1cc(Nc2ncc(Cl)c(-n3cc(CN4C[C@H](O)[C@H](OC)C4)c(C)n3)n2)c(OC)cc1N1CCOCC1 [Compound 51, N-(5-(5-chloro-4-(4-(((3S,4R)-3-hydroxy-4-methoxypyrrolidin-1-yl)methyl)-3-methyl-1H-pyrazol-1-yl)pyrimidin-2-ylamino)-4-methoxy-2-morpholinophenyl)acrylamide]
IC50 (EGFR mutant L858R/T790M): < 20 nM
IC50 (SYK): > 1000 nM
IC50 [1]: 20 to 200 nM
IC50 (EGFR mutant Del19/T790M): < 20 nM
IC50 (EGFR mutant L858R): 20 to 200 nM
IC50 (EGFR mutant T790M): < 20 nM

C=CC(=O)Nc1cc(Nc2ncc(F)c(-n3cc(C)c(CN4CCC4)c3)n2)c(OC)cc1N1CCC1 [Compound 141, N-(2-(azetidin-1-yl)-5-(4-(3-(azetidin-1-ylmethyl)-4-methyl-1H-pyrrol-1-yl)-5-fluoropyrimidin-2-ylamino)-4-methoxyphenyl)acrylamide]
IC50 (EGFR mutant L858R/T790M): < 20 nM
IC50 (SYK): 201 to 1000 nM
IC50 [1]: < 20 nM
IC50 (EGFR mutant Del19/T790M): < 20 nM
IC50 (EGFR mutant L858R): < 20 nM
IC50 (EGFR mutant T790M): < 20 nM

C=CC(=O)Nc1cc(Nc2nccc(-n3cc(CN4CCC4)cn3)n2)c(OC)cc1N(C)C [Compound 38, N-(5-(4-(4-(azetidin-1-ylmethyl)-1H-pyrazol-1-yl)pyrimidin-2-ylamino)-2-(dimethylamino)-4-methoxyphenyl)acrylamide]
IC50 (EGFR mutant L858R/T790M): < 20 nM
IC50 (SYK): > 1000 nM
IC50 [1]: < 20 nM
IC50 (EGFR mutant Del19/T790M): 20 to 200 nM
IC50 (EGFR mutant L858R): < 20 nM
IC50 (EGFR mutant T790M): < 20 nM

COc1cc(N2CCOCC2)c([N+](=O)[O-])cc1Nc1nccc(-n2cc(CN(C)C)c(-c3ccccc3)n2)n1 [Compound 152, 4-(4-((dimethylamino)methyl)-3-phenyl-1H-pyrazol-1-yl)-N-(2-methoxy-4-morpholino-5-nitrophenyl)pyrimidin-2-amine, reference compound]
IC50 (EGFR mutant L858R/T790M): > 1000 nM
IC50 (SYK): > 1000 nM
IC50 [1]: > 1000 nM
IC50 (EGFR mutant Del19/T790M): > 1000 nM
IC50 (EGFR mutant L858R): > 1000 nM
IC50 (EGFR mutant T790M): > 1000 nM

C=CC(=O)Nc1cc(Nc2nccc(-n3cc(CN4CCC4)c(C4CC4)n3)n2)c(OC)cc1N1CCN(C(C)=O)CC1 [Compound 138, N-(2-(4-acetylpiperazin-1-yl)-5-(4-(4-(azetidin-1-ylmethyl)-3-cyclopropyl-1H-pyrazol-1-yl)pyrimidin-2-ylamino)-4-methoxyphenyl)acrylamide]
IC50 (EGFR mutant L858R/T790M): < 20 nM
IC50 (SYK): > 1000 nM
IC50 [1]: < 20 nM
IC50 (EGFR mutant Del19/T790M): < 20 nM
IC50 (EGFR mutant L858R): < 20 nM
IC50 (EGFR mutant T790M): < 20 nM

C=CC(=O)Nc1cc(Nc2nccc(-n3cc(CN(C)C)c(-c4ccoc4)n3)n2)c(OC)cc1N1CCOCC1 [Compound 127, N-(5-(4-(4-((dimethylamino)methyl)-3-(furan-3-yl)-1H-pyrazol-1-yl)pyrimidin-2-ylamino)-4-methoxy-2-morpholinophenyl)acrylamide]
IC50 (EGFR mutant L858R/T790M): < 20 nM
IC50 (SYK): 201 to 1000 nM
IC50 [1]: < 20 nM
IC50 (EGFR mutant Del19/T790M): < 20 nM
IC50 (EGFR mutant L858R): < 20 nM
IC50 (EGFR mutant T790M): < 20 nM

C=CC(=O)Nc1cc(Nc2ncc(C)c(-n3cc(CN4CC(O)C4)c(C)n3)n2)c(OC)cc1N(C)CCN(C)C [Compound 31, N-(2-((2-(dimethylamino)ethyl)(methyl)amino)-5-(4-(4-((3-hydroxyazetidin-1-yl)methyl)-3-methyl-1H-pyrazol-1-yl)-5-methylpyrimidin-2-ylamino)-4-methoxyphenyl)acrylamide]
IC50 (EGFR mutant L858R/T790M): < 20 nM
IC50 (SYK): 20 to 200 nM
IC50 [1]: < 20 nM
IC50 (EGFR mutant Del19/T790M): < 20 nM
IC50 (EGFR mutant L858R): < 20 nM
IC50 (EGFR mutant T790M): < 20 nM

C=CC(=O)Nc1cc(Nc2nccc(-n3cc(CN4CCC4)c(C4CC4)n3)n2)c(OC)cc1N(C)C1COC1 [Compound 109, N-(5-(4-(4-(azetidin-1-ylmethyl)-3-cyclopropyl-1H-pyrazol-1-yl)pyrimidin-2-ylamino)-4-methoxy-2-(methyl(oxetan-3-yl)amino)phenyl)acrylamide]
IC50 (EGFR mutant L858R/T790M): < 20 nM
IC50 (SYK): > 1000 nM
IC50 [1]: < 20 nM
IC50 (EGFR mutant Del19/T790M): < 20 nM
IC50 (EGFR mutant L858R): < 20 nM
IC50 (EGFR mutant T790M): < 20 nM

C=CC(=O)Nc1cc(Nc2ncc(C)c(-n3cc(CN4C[C@H](O)[C@H](OC)C4)cn3)n2)c(OC)cc1N1CCOCC1 [Compound 21, N-(5-(4-(4-(((3S,4R)-3-hydroxy-4-methoxypyrrolidin-1-yl)methyl)-1H-pyrazol-1-yl)-5-methylpyrimidin-2-ylamino)-4-methoxy-2-morpholinophenyl)acrylamide]
IC50 (EGFR mutant L858R/T790M): < 20 nM
IC50 (SYK): 201 to 1000 nM
IC50 [1]: < 20 nM
IC50 (EGFR mutant Del19/T790M): < 20 nM
IC50 (EGFR mutant L858R): 20 to 200 nM
IC50 (EGFR mutant T790M): < 20 nM

C=CC(=O)Nc1cc(Nc2nccc(-n3cc(CN4CCC4)c(C(C)C)n3)n2)c(OC)cc1N1CCOCC1 [Compound 119, N-(5-(4-(4-(azetidin-1-ylmethyl)-3-isopropyl-1H-pyrazol-1-yl)pyrimidin-2-ylamino)-4-methoxy-2-morpholinophenyl)acrylamide]
IC50 (EGFR mutant L858R/T790M): < 20 nM
IC50 (SYK): 201 to 1000 nM
IC50 [1]: < 20 nM
IC50 (EGFR mutant Del19/T790M): < 20 nM
IC50 (EGFR mutant L858R): < 20 nM
IC50 (EGFR mutant T790M): < 20 nM

C=CC(=O)Nc1cc(Nc2nccc(-n3cc(CN(C)C)c(-c4ccc(C)cc4)n3)n2)c(OC)cc1N1CCOCC1 [Compound 80, N-(5-(4-(4-((dimethylamino)methyl)-3-p-tolyl-1H-pyrazol-1-yl)pyrimidin-2-ylamino)-4-methoxy-2-morpholinophenyl)acrylamide]
IC50 (EGFR mutant L858R/T790M): < 20 nM
IC50 (SYK): > 1000 nM
IC50 [1]: < 20 nM
IC50 (EGFR mutant Del19/T790M): < 20 nM
IC50 (EGFR mutant L858R): < 20 nM
IC50 (EGFR mutant T790M): < 20 nM

— patent publication USRE50528E1, “Compounds and compositions for modulating EGFR mutant kinase activities” (Yuhan Corporation, priority 2014, dated 2025)
